Laboratory results from PubChem BioAssay AID2038 (NMMLSC, 2009).
Active and inactive are the calls of the source. No rule for the calls is given here.

biological target: GTPase HRas (Homo sapiens) (UniProt P01112); test: Ras wt fluorescent nucleotide binding blockade – biochemical, additional analogs, wildtype, multiplex flow cytometry, Ki, SAR follow-up (AID 2038); details: Multiplex bead flow cytometry, fluorescent GTP binding
Sequence (P01112 whole entry, looked up): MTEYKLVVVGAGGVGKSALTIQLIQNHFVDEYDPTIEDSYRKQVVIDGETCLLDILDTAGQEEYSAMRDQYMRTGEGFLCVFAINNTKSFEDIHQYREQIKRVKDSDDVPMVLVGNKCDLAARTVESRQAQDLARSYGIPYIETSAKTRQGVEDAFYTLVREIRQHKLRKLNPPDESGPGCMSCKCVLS

Compound | EC50
O=C1C(c2c(O)[nH]c3ccccc23)=Nc2ccccc21 | > 30 µM (inactive)
O=Nc1c(-c2c(O)[nH]c3c(Br)cccc23)[nH]c2ccccc12 | > 37.5 µM (inactive)
O=C1N=c2ccccc2=C1c1[nH]c(=S)[nH]c1O | > 30 µM (inactive)
O=C1C(c2c(O)[nH]c3c(F)cccc23)=Nc2ccccc21 | > 30 µM (inactive)
O=Nc1c(-c2c(O)[nH]c3ccccc23)[nH]c2ccccc12 | > 30 µM (inactive)
O=Nc1c(-c2c(O)[nH]c3c(F)cccc23)[nH]c2ccccc12 | > 30 µM (inactive)
O=C1C(c2c(O)[nH]c3ccc(Br)cc23)=Nc2ccccc21 | > 30 µM (inactive)
O=C1C(c2c(O)[nH]c3c(Cl)cccc23)=Nc2ccccc21 | > 30 µM (inactive)
COc1ccc2cc([C@H](C)C(=O)O)ccc2c1 | > 30 µM (inactive)
O=Nc1c(-c2c(O)[nH]c3c(Cl)cccc23)[nH]c2ccccc12 | > 30 µM (inactive)
O=C1C(c2c(O)[nH]c3c(Br)cccc23)=Nc2ccccc21 | > 30 µM (inactive)
O=Nc1c(-c2c(O)[nH]c3ccc(Br)cc23)[nH]c2ccccc12 | > 30 µM (inactive)
O=C1N=c2ccccc2=C1c1[nH]c(=O)[nH]c1O | > 30 µM (inactive)

same assay, conditions: Multiplex bead flow cytometry, fluorescent GTP binding; measured here: Ki from EC50

Compound | Ki [µM]
O=Nc1c(-c2c(O)[nH]c3c(Br)cccc23)[nH]c2ccccc12 | 5.85
COc1ccc2cc([C@@H](C)C(=O)O)ccc2c1 | 0.49
O=C(C#Cc1ccccc1)c1ccc(F)cc1 | 4.84
